Reference: patent US20240067603A1, “CUBANYL BIGUANIDE COMPOUNDS” (REGENTS OF THE UNIVERSITY OF MINNESOTA, priority 2020, published 2024)
pIC50: −log10 of the molar value.

Legend:
[1] = Toxicity / tolerance of dosing in mice; assay type: in vivo
Description: Study 1 was performed by dose escalation of SC HBB from 4 mg/kg qd to 12 mg/kg qd with female CD-1 mice (Envigo) approximately 4-8 weeks of age. N=5 mice per HBB dose group, n=10 naïve control mice.
Study 2 two was performed by dose escalation of SC HBB from 16 mg/kg qd to 24 mg/kg qd with female BALB/c mice (Envigo) approximately 6-8 weeks of age. N=4 mice per HBB dose group, n=3 naïve control mice
Study 3 was performed by dose escalation of SC HBB from 16 mg/kg qd to 24 mg/kg qd with female C57BL/6 mice (CR) approximately 6-8 weeks of age. N=12 for HBB dose group, n=3 naïve control mice.

breast cancer cell lines = details: background statement; read-out: IC50, growth of breast cancer cell lines; cited from earlier work
mm006 = experiment: Oxygen consumption rate (OCR), mm006; assay type: cell-based, mouse (C57BL/6)
Description: Measurement of oxygen consumption rate (OCR). Cells were maintained in growth medium consisting of 10% FBS at 37° C. with 5% CO2 and seeded at 25,000 cells per well in a 96-well XF96 cell culture microplates (Agilent, Santa Clara, CA). An 96 well XF sensor cartridge was hydrated and equilibrated with 200 ul calibrant in each well at 37° C. without CO2 overnight. Growth media was replaced with 150 μL DMEM based assay media (a non-buffered medium including 2 mM L-glutamine but no sodium bicarbonate (buffering agent), glucose, or sodium pyruvate, Agilent, Santa Clara, CA) the next day and cells were incubated CO2 free for 1 hour before the measurement of OCR by a Seahorse XFe Extracellular Flux Analyzer (Agilent, Santa Clara, CA), which measures uptake and excretion of metabolic end products in real time. After baseline measurements, 20 μl assay medium containing control vehicle or drugs were injected into corresponding wells. OCRs were measured periodically and can be reported in pmoles/minute or normalized against baseline measurements before treatment.

AMPKα = AMPKα phosphorylation (Thr172) in MCF-7 cells, Western blotting; assay type: cell-based, human; details: 10 μM, with and without serum, FIG. 7
Description: FIG. 7. Effect of HCB on MCF-7 AMPKα phosphorylation (Thr172). MCF-7 cells were grown in complete media to 70% confluency and treated with 10 μM HCB. Cells were harvested at varied time (0-24 hr) and total proteins were extracted and analyzed by Western blotting. For 0% serum experiment, complete media was replaced with serum, phenol red and antibiotics free media 16 hours before treatment. Quantitation results are expressed as mean±S.D. (n=3, * indicates statistically significant difference, p<0.05). MCF-7 cells were grown in complete media (10% serum) to 80% confluence. Left panel: HCB was added to a final concentration of 10 μM in complete media; Right panel: complete media was replaced with serum free media and serum starved for 16 hours before HCB was added to a final concentration of 10 μM. At indicated time points after the addition of HCB, cells were harvested and analyzed by Western blotting. AMPK activation was reported as fractional Thr172 phosphorylation±S.D. (n=3, * indicates statistically significant difference from control).

CYP2C8 = molecular target: T1, CYP2C8 (Homo sapiens, UniProt P10632); experiment: Stability with recombinant human CYP2C8; assay type: in vitro ADME; details: 10 μM HCB, recombinant human CYP2C8, NADPH 2 mM
T1 construct: purchased Corning; host or cells: insect cells (microsomes)
T1 sequence (P10632 1-490): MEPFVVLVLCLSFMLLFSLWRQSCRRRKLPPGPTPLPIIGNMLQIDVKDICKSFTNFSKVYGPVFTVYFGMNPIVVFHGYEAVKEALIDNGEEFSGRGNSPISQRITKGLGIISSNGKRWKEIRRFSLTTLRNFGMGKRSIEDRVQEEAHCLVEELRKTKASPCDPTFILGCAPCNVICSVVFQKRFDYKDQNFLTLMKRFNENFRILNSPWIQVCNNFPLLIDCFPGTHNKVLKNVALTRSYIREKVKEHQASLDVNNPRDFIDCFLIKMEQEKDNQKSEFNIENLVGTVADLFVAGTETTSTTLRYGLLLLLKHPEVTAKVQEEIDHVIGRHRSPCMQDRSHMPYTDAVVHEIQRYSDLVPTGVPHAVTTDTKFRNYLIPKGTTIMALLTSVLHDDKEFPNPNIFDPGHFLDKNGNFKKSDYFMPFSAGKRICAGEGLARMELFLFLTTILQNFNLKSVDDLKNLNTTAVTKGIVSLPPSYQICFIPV
Description: (§1) Stability of HCB with recombinant human CYP3A4 and CYP2C8 enzymes was evaluated. 10 μM HCB was tested wich CYP3A4 and 2C8 (200 pmol/L) (Table 8). NADPH (2 mM) was added as a cofactor. Total volume was 200 μL.
(§2) HCB was incubated for 0, 30, or 60 min at 37° C. Incubations were quenched with 2 volumes of acetonitrile followed by centrifugation for 10 min at 16,000 g.

CYP3A4 = CYP3A4 (Homo sapiens, UniProt P08684); experiment: Stability with recombinant human CYP3A4; assay type: in vitro ADME; design: purchased Corning; host or cells: insect cells (microsomes)
Chain of CYP3A4 (P08684 whole entry): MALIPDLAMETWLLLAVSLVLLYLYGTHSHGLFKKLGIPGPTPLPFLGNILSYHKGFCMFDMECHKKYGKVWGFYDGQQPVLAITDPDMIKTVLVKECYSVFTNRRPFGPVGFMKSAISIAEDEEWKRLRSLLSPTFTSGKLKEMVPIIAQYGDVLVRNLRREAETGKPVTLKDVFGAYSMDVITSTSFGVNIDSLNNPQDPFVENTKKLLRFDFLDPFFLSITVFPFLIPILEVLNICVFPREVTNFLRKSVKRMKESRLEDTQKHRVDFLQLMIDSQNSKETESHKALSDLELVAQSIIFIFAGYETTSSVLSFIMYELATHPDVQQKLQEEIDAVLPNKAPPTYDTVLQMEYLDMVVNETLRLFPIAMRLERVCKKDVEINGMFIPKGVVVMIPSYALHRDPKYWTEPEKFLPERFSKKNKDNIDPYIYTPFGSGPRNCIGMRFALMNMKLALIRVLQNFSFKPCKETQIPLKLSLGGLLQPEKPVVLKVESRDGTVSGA
Description: as §1, §2

Compound	tolerance of daily SC dosing above 12 mg/kg ([1]; SC 16 to 24 mg/kg qd, female BALB/c mice, FIG. 21)	tolerance of dose escalation ([1]; daily SC 4 to 12 mg/kg over approximately 2 months, female CD-1 mice, FIG. 20)	MTD ([1]; female, CD-1 (Study 1), BALB/c (Study 2), C57BL/6 (Study 3), mouse, in vivo, sc, daily)	effect on splenic or lymph node CD4 or CD8 T cells ([1]; mice)	toxicity in mice ([1]; mouse, in vivo)	MTD ([1]; mouse, in vivo, ip, 4 times per week, no more than 2 consecutive days)	tolerance of daily SC dosing ([1]; study day 3 to day 26, female C57BL/6 mice, FIG. 22)	pIC50 (breast cancer cell lines)	OCR Inhibition [HCB] (uM) v vs. control (P < 0.05) (mm006)	AMPK phosphorylation (AMPKα)	parent metabolite peak area after 60 min (CYP2C8)	parent metabolite peak area after 60 min (CYP3A4; 10 μM HCB, recombinant human CYP3A4, NADPH 2 mM)	degradation pathways (CYP3A4; recombinant human CYP3A4 and CYP2C8)
CCCCCCNC(=N)NC(=N)NCc1ccccc1 [HBB, N1-hexyl-N5-benzyl-biguanide]	not as well tolerated	well tolerated	12 mg/kg	no observed effect	acceptable toxicity	6 mg/kg	well tolerated	4.52 to 5.52					
CCCCCCNC(=N)NC(=N)NCC12C3C4C5C3C1C5C42 (stereo not shown) [HCB, Hexyl Cubanomethyl Biguanide]									20 µM	potent activation	99.78%	93.91%	oxidation, dealkylation, and hydrogenation
